Molecules are shown by their SMILES.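 96-well plates; 48 h exposure; 5 concentrations. Endpoints by linear interpolation between flanking doses. Not reached: highest tested concentration assigned. GI50 is the concentration that inhibits growth by half. TGI: concentration producing complete growth inhibition.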

What all share (test): DTP human tumour cell line panel, 48 h
Experiment [1] concerns CCRF-CEM leukemia.
In experiment [2] the test system is KM12 colon.
In experiment [3] the test system is A498 renal.
In experiment [4] the test system is RPMI-8226 leukemia.
For experiment [5], the system named is HCT-15 colon.
For experiment [6], the system named is SK-MEL-28 melanoma.
Experiment [7] deals with NCI-H522 lung.
Experiment [8] has as its system CAKI-1 renal.
The test system of experiment [9] is SK-MEL-5 melanoma.
Experiment [10] has as its system SR leukemia.

Usually TGI stands for the concentration giving total growth inhibition. A low value points to more potent growth arrest. Consider `Nc1ncn([C@@H]2C=C(CO)C(O)C2O)c(=O)n1` (stereo not given in full), for which the TGI in [1], in [2], in experiment [3], in experiment [4], in experiment [5] and in experiment [6] was above 100 µM throughout. The TGI in experiment [7], in experiment [8] and in experiment [9] was above 100 µM in each case.

What is called GI50 is the concentration that inhibits growth by half. As to `CC/C(=C(/CC)c1ccc(OP(=O)([O-])[O-])cc1)c1ccc(OP(=O)([O-])[O-])cc1.N.N.N.N.[Pt+4].[Pt+4]`, the GI50 in experiment [1] was 0.898 µM; in experiment [10] it was 1.28 µM; in experiment [2], 22 µM; in [3] it was 27.5 µM; in experiment [4] it was 4.19 µM; in experiment [5], 11.8 µM. Moreover, the GI50 in experiment [6] is 2.07 µM; in [9], 2.22 µM. For the same molecule, the TGI is above 100 µM in [1]; above 100 µM in [10]; above 100 µM in experiment [2]; 61.1 µM in experiment [3]; above 100 µM in experiment [4]; 45.4 µM in experiment [5]. In addition, the results for the TGI in experiment [6] and in experiment [9] were 6.28 µM and 9.34 µM, respectively.

With `COc1ccc(C(=O)Nc2ccccc2)cc1[N+](=O)[O-]`, the TGI in [1], in experiment [2], in experiment [3], in experiment [4], in experiment [5] and in experiment [6] was above 100 µM throughout. Besides, the TGI in experiment [7], in experiment [8] and in experiment [9] was above 100 µM throughout.

Regarding `CCOC(=O)C1=C(O)CSC1=Nc1ccc(N=C2SCC(O)=C2C(=O)OCC)cc1`, the TGI in experiment [1] is above 100 µM; in experiment [2] it was 44.9 µM; in experiment [3], 50.5 µM; in experiment [4], above 100 µM; in experiment [5], 57.7 µM; in experiment [6] it was 40.8 µM. Moreover, the total growth inhibition concentration (TGI) in [7] is 32.3 µM; in experiment [8], 30.8 µM; in [9] it was 44.3 µM.

As for `C/C=C(\C)C(=O)O[C@@H]1C=CC(=O)O[C@H]1COC(=O)[C@H](C)O`, the GI50 in experiment [1] is 0.733 µM; in experiment [2] it was 13.3 µM; in experiment [3], 15.2 µM; in experiment [4] it was 18.8 µM; in experiment [5] it was 5.68 µM; in experiment [6] it was 12.4 µM. Besides, the GI50 in [7] is 4.96 µM; in experiment [8], 27 µM; in experiment [9] it was 12.6 µM. Besides, the TGI in experiment [1] amounted to 17 µM; in [2] it was 27 µM; in experiment [3], 30.4 µM; in [4] it was 44.2 µM; in experiment [5], 19.5 µM; in experiment [6], 27.9 µM. In addition, the results for the TGI in experiment [7], in experiment [8] and in experiment [9] were 20.7 µM, 42.9 µM and 25.1 µM, respectively.

In the case of `Cn1cc(-c2nonc2-c2cn(C)c3ccc(Br)cc23)c2ccccc21`, the GI50 in experiment [1] is 3.37 µM; in experiment [2], 2.63 µM; in experiment [3] it was 3.38 µM; in experiment [4], 3.32 µM; in [5], 2.17 µM; in [6], above 100 µM. In addition, the GI50 was 3.01 µM in [7], 4.33 µM in experiment [8] and 3.37 µM in experiment [9]. In addition, the TGI in experiment [1], in experiment [2], in experiment [3], in experiment [4], in experiment [5] and in [6] was above 100 µM throughout. The TGI in experiment [7], in experiment [8] and in experiment [9] was above 100 µM in each case.

For `Clc1ccc(C2=NN(c3ccccc3)C3c4cc(Br)ccc4OCC23)cc1` (stereo not given), the TGI in experiment [1], in experiment [2], in [3], in experiment [4], in experiment [6] and in experiment [7] was above 100 µM throughout. The TGI in [9] is above 100 µM.

On to `O=C(Nc1ccc(Cl)cc1)C(=O)C1=C(O)c2ccccc2OC1`, for which the TGI in [1], in [2], in experiment [3], in experiment [4], in experiment [5] and in experiment [6] was above 100 µM in each case. The TGI in experiment [7], in experiment [8] and in [9] was above 100 µM each time.

Turning to `COC(=O)C1(c2ccc(OC)cc2)NC(c2ccccc2)C2C(=O)N(c3ccc(OC)cc3)C(=O)C21` (stereo not given), the TGI in [1], in experiment [2], in [3], in [4], in experiment [5] and in [6] was above 100 µM in each case. The TGI in experiment [7], in experiment [8] and in experiment [9] was above 100 µM in each case.

Turning to `Cc1ccc(C)c(NC(=O)CCC(=O)CC(=O)C(C)(C)C)c1`, the TGI in experiment [1], in experiment [2], in experiment [3], in [4], in experiment [5] and in [6] was above 100 µM each time. Moreover, the TGI in [7], in [8] and in [9] was above 100 µM throughout.

In the case of `COc1ccccc1NS(=O)(=O)c1cc(C(C)(C)C)ccc1OCCOc1ccc(C(C)(C)C)cc1S(=O)(=O)Nc1ccccc1OC`, the TGI in [1], in [2], in experiment [3], in experiment [4], in [5] and in experiment [6] was above 100 µM each time. The TGI in [8] and in [9] was above 100 µM in each case.

For the molecule `Nc1cc2c3c(cccc3c1)C(=O)N(CCN1CCN(CCN3C(=O)c4cccc5cc(N)cc(c45)C3=O)CC1)C2=O`, the TGI in experiment [1], in [2], in experiment [3], in experiment [4], in experiment [5] and in [6] was above 100 µM throughout. The TGI in [7], in experiment [8] and in experiment [9] was above 100 µM throughout.

(Values after PubChem BioAssay (NCI).)
